The target of assay [1] is T1, CK2α/CK2β interaction (human CK2α1–335, human CK2β1–193) (Homo sapiens, UniProt P68400).
T1 construct: human CK2α^1–335; made in house
T1 sequence (P68400 1-335): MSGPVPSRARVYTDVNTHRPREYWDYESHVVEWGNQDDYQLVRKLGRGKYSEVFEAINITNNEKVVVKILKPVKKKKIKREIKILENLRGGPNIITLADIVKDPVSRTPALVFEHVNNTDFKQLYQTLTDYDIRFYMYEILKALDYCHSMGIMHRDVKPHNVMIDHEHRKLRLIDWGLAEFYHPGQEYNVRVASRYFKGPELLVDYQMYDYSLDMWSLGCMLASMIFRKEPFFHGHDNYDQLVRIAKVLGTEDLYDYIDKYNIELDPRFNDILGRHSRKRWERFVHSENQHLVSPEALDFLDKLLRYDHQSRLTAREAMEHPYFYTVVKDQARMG
The assay can be described thus: Microscale thermophoresis (MST) assay of the CK2α/CK2β subunit interaction. The class given is binding. Particulars: for Ki / Inhibition of CK2α/CK2β Interaction Ki: MST, global analysis, KD′ = KD [1 + (ccompound/Ki)], n.s. = KD′ not significantly different from KD; for Ki: read-out: Inhibition of CK2α/CK2β Interaction Ki. On the procedure:
A microscale thermophoresis (MST) assay was used to determine the interaction of the CK2α and CK2β subunits. In this assay, a constant concentration of the fluorescently labeled CK2β subunit was added to increasing concentrations of the CK2α subunit and the thermophoretic shift was recorded, respectively. […] The same experiment was performed in the presence of 20, 50, or 100 µM of the test compounds (see Table 1). An increased KD′ value in the presence of the test compounds was evaluated as the inhibition of the association of the CK2α and CK2β subunits. The increased KD′ value was then transformed together with the employed concentration of the test compound into the Ki value for the inhibition of the CK2α/CK2β association (formula see Supporting Information).
The compounds were investigated at a final concentration of 20, 50, or 100 µM. […] Data analysis and statistical evaluation were conducted with GraphPad Prism v.6 for Windows (GraphPad Software, La Jolla, CA, USA, www.graphpad.com).
(MST reads how a fluorescent partner responds to local heating, with and without ligand.)

The subject of a further assay is CK2. Particulars: cited from earlier work.

As usually defined, the Kd is the constant that tells how readily two partners part at equilibrium. A higher Kd goes with weaker binding. For orientation: IC50 means the concentration that inhibits the measured activity by half.

Structures can show the parent of a compound that is named as a salt.

Turning to `COc1cc([C@@H]2c3c([nH]c4ccccc34)[C@@H](C(=O)NCCc3c[nH]c4ccccc34)[C@@H]3C(=O)NC(=O)[C@H]23)cc(OC)c1OC` (racemic) [(±)-14, (3aRS,4SR,10RS,10aRS)-N-[2-(Indol-3-yl)ethyl]-1,3-dioxo-10-(3,4,5-trimethoxyphenyl)-1,2,3,3a,4,5,10,10a-octahydropyrrolo[3,4-b]carbazole-4-carboxamide], in assay [1], the dissociation constant Kd amounted to 158 ± 17 nM and the Ki came out at 3800 nM.

Take `COc1cc([C@@H]2c3c([nH]c4ccccc34)[C@@H](C(=O)Nc3nc4ccccc4[nH]3)[C@@H]3C(=O)NC(=O)[C@H]23)cc(OC)c1OC` (racemic) [(±)-17, (3aRS,4SR,10RS,10aRS)-N-(1H-Benzimidazol-2-yl)-1,3-dioxo-10-(3,4,5-trimethoxyphenyl)-1,2,3,3a,4,5,10,10a-octahydropyrrolo[3,4-b]carbazole-4-carboxamide]: in assay [1], binding was put at a Kd of 93 ± 13 nM and the Ki came out at 7100 nM.

Regarding `CCOC(=O)[C@@H]1c2[nH]c3ccccc3c2[C@@H](c2ccc([N+](=O)[O-])cc2)[C@H]2C(=O)NC(=O)[C@H]21` (racemic) [(±)-21a, Ethyl (3aRS,4SR,10RS,10aRS)-10-(4-nitrophenyl)-1,3-dioxo-1,2,3,3a,4,5,10,10a-octahydropyrrolo[3,4-b]carbazole-4-carboxylate], in assay [1], the Kd is 20 ± 10 nM and the “Inhibition of CK2α/CK2β Interaction Ki” value is listed as “n.s”.

As to `Cc1ccc(N/C=C2\C(=O)CCc3c2oc2c(Cl)c(Cl)c(O)cc32)cc1` [2a], the IC50 in the assay with CK2 (ATP competitive, read-out: CK2 inhibition IC50) is 29 nM.

Consider `CNC(=O)[C@@H]1c2[nH]c3ccccc3c2[C@@H](c2cc(OC)c(OC)c(OC)c2)[C@H]2C(=O)NC(=O)[C@H]21` (racemic) [(±)-11, (3aRS,4SR,10RS,10aRS)-N-Methyl-1,3-dioxo-10-(3,4,5-trimethoxyphenyl)-1,2,3,3a,4,5,10,10a-octahydropyrrolo[3,4-b]carbazole-4-carboxamide], for which, in assay [1], the equilibrium dissociation constant (Kd) was 132 ± 43 nM and the Ki was 6000 nM.

In the case of `CCOC(=O)[C@@H]1c2[nH]c3ccccc3c2[C@@H](c2ccc(NC(=O)c3ccc(OC)cc3)cc2)[C@H]2C(=O)N(Cc3ccccc3)C(=O)[C@H]21` (racemic) [(±)-23, Ethyl (3aRS,4SR,10RS,10aRS)-2-benzyl-10-[4-(4-methoxybenzamido)phenyl]-1,3-dioxo-1,2,3,3a,4,5,10,10a-octahydropyrrolo[3,4-b]carbazole-4-carboxylate], the dissociation constant Kd in assay [1] came to 24 ± 9 nM. In addition, the figures for the “Inhibition of CK2α/CK2β Interaction Ki” value in assay [1] and in assay [1] (listed as 23) were “n.s” and “did not result in a significant inhibition”, respectively.

`CCOC(=O)[C@H]1c2[nH]c3ccccc3c2[C@H](c2cc(OC)c(OC)c(OC)c2)[C@@H]2C(=O)NC(=O)[C@@H]21` (racemic) [(±)-9a, Ethyl (3aRS,4SR,10RS,10aRS)-1,3-dioxo-10-(3,4,5-trimethoxyphenyl9a)-1,2,3,3a,4,5,10,10a-octahydropyrrolo[3,4-b]carbazole-4-carboxylate]: in assay [1], the dissociation constant (Kd) stood at 59 ± 25 nM and the Ki is 32000 nM.

`NCc1cc(Cl)cc(-c2cccc3[nH]ccc23)c1` [CAM187]: the “Effect on kinase activity of CK2” value in the assay with CK2 is reported as “not significantly affected”.

Regarding `COc1cc([C@@H]2c3c([nH]c4ccccc34)[C@@H](C(=O)O)[C@@H]3C(=O)NC(=O)[C@H]23)cc(OC)c1OC` (racemic) [(±)-10, (3aRS,4SR,10RS,10aRS)-1,3-Dioxo-10-(3,4,5-trimethoxyphenyl)-1,2,3,3a,4,5,10,10a-octahydropyrrolo[3,4-b]carbazole-4-carboxylic acid], in assay [1], the equilibrium dissociation constant (Kd) was 758 ± 338 nM and the Ki was 1900 nM.

As to `COC(=O)[C@H](CO)NC(=O)[C@H]1c2[nH]c3ccccc3c2[C@H](c2cc(OC)c(OC)c(OC)c2)[C@@H]2C(=O)NC(=O)[C@@H]21` [(+)-18a, Methyl N-{[(3aS,4R,10S,10aS)-1,3-dioxo-10-(3,4,5-trimethoxyphenyl)-1,2,3,3a,4,5,10,10a-octahydropyrrolo[3,4-b]carbazol-4-yl]carbonyl}-(S)-serinate], in assay [1], the equilibrium dissociation constant (Kd) is 72 ± 2 nM and the Ki amounted to 9100 nM.

As to `CCOC(=O)[C@H]1c2[nH]c3ccccc3c2[C@H](c2ccc(N)cc2)[C@@H]2C(=O)NC(=O)[C@@H]21` (racemic) [(±)-22a, Ethyl (3aRS,4SR,10RS,10aRS)-10-(4-aminophenyl)-1,3-dioxo-1,2,3,3a,4,5,10,10a-octahydropyrrolo[3,4-b]carbazole-4-carboxylate∙HCl], in assay [1], the dissociation constant (Kd) is 31 ± 11 nM and the “Inhibition of CK2α/CK2β Interaction Ki” value was “n.s”.

`COC(=O)[C@H](CCSC)NC(=O)[C@@H]1c2[nH]c3ccccc3c2[C@@H](c2cc(OC)c(OC)c(OC)c2)[C@H]2C(=O)NC(=O)[C@H]21` [(–)-19b, Methyl N-{[(3aR,4S,10R,10aR)-1,3-dioxo-10-(3,4,5-trimethoxyphenyl)-1,2,3,3a,4,5,10,10a-octahydropyrrolo[3,4-b]carbazol-4-yl]carbonyl}-(S)-methioninate]: in assay [1], the Kd was determined as 94 ± 24 nM and the Ki was determined as 7700 nM.

For `COc1cc([C@@H]2c3c([nH]c4ccccc34)[C@@H](C(=O)N3CCCCC3)[C@@H]3C(=O)NC(=O)[C@H]23)cc(OC)c1OC` (racemic) [(±)-16, (3aRS,4SR,10RS,10aRS)-4-[(Piperidin-1-yl)carbonyl]-10-(3,4,5-trimethoxyphenyl)-4,5,10,10a-tetrahydropyrrolo[3,4-b]carbazole-1,3(2H,3aH)-dione], in assay [1], the dissociation constant Kd amounted to 72 ± 12 nM and the Ki was determined as 9700 nM.

Consider `COc1cc([C@@H]2c3c([nH]c4ccccc34)[C@@H](C(=O)Nc3cccnc3)[C@@H]3C(=O)NC(=O)[C@H]23)cc(OC)c1OC` (racemic) [(±)-15, (3aRS,4SR,10RS,10aRS)-1,3-Dioxo-N-(pyridin-3-yl)-10-(3,4,5-trimethoxyphenyl)-1,2,3,3a,4,5,10,10a-octahydropyrrolo[3,4-b]carbazole-4-carboxamide], for which, in assay [1], the affinity, expressed as Kd, was 89 ± 13 nM and the Ki worked out at 7400 nM.

For the molecule `CCOC(=O)[C@H]1c2[nH]c3ccccc3c2[C@H](c2ccc(N)cc2)[C@@H]2C(=O)N(Cc3ccccc3)C(=O)[C@@H]21` (racemic) [(±)-22c, Ethyl (3aRS,4SR,10RS,10aRS)-10-(4-aminophenyl)-2-benzyl-1,3-dioxo-1,2,3,3a,4,5,10,10a-octahydropyrrolo[3,4-b]carbazole-4-carboxylate∙HCl], the equilibrium dissociation constant (Kd) in assay [1] was 25 ± 15 nM. In addition, the “Inhibition of CK2α/CK2β Interaction Ki” value in assay [1] is given as “n.s”; in assay [1] (listed as 22c), “did not result in a significant inhibition”.

Turning to `COC(=O)[C@H](Cc1c[nH]cn1)NC(=O)[C@@H]1c2[nH]c3ccccc3c2[C@@H](c2cc(OC)c(OC)c(OC)c2)[C@H]2C(=O)NC(=O)[C@H]21` [(–)-20b, methyl N-{[(3aR,4S,10R,10aR)-1,3-dioxo-10-(3,4,5-trimethoxyphenyl)-1,2,3,3a,4,5,10,10a-octahydropyrrolo[3,4-b]carbazol-4-yl]carbonyl}-(S)-histidinate], in assay [1], the Kd amounted to 29 ± 7 nM and the “Inhibition of CK2α/CK2β Interaction Ki” value is listed as “n.s”.

Regarding `COc1cc([C@@H]2c3c([nH]c4ccccc34)[C@@H](C(=O)NCc3ccc(Cl)cc3)[C@@H]3C(=O)NC(=O)[C@H]23)cc(OC)c1OC` (racemic) [(±)-13, (3aRS,4SR,10RS,10aRS)-N-(4-Chlorobenzyl)-1,3-dioxo-10-(3,4,5-trimethoxyphenyl)-1,2,3,3a,4,5,10,10a-octahydropyrrolo[3,4-b]carbazole-4-carboxamide], in assay [1], the equilibrium dissociation constant (Kd) came out at 17 ± 3 nM and the “Inhibition of CK2α/CK2β Interaction Ki” value is on record as “n.s”.

In the case of `CCOC(=O)[C@@H]1c2[nH]c3ccccc3c2[C@@H](c2cc(OC)c(OC)c(OC)c2)[C@H]2C(=O)N(C)C(=O)[C@H]21` (racemic) [(±)-9b, Ethyl (3aRS,4SR,10RS,10aRS)-2-methyl-1,3-dioxo-10-(3,4,5-trimethoxyphenyl)-1,2,3,3a,4,5,10,10a-octahydropyrrolo[3,4-b]carbazole-4-carboxylate], in assay [1], the Kd was determined as 14 ± 6 nM and the “Inhibition of CK2α/CK2β Interaction Ki” value is reported as “n.s”.

With `COc1cc([C@@H]2c3c([nH]c4ccccc34)[C@@H](C(=O)NCc3ccccc3)[C@@H]3C(=O)NC(=O)[C@H]23)cc(OC)c1OC` (racemic) [(±)-12, (3aRS,4SR,10RS,10aRS)-N-Benzyl-1,3-dioxo-10-(3,4,5-trimethoxyphenyl)-1,2,3,3a,4,5,10,10a-octahydropyrrolo[3,4-b]carbazole-4-carboxamide], in assay [1], the dissociation constant (Kd) turned out to be 62 ± 19 nM and the Ki was 14000 nM.
